What all share (assay type): physicochemical
A short description of series [1]: Atomic Force Microscopy (AFM) morphological study of peptide nano structures. The note with it: 100 μM peptide solution on mica, rinsed, air-dried, tapping mode. As to the method:
Each sample was left on the mica for about 30 seconds (s) and then rinsed with aliquots of 100 μl of Milli-Q (ultrapure) water to remove unattached peptides. The sample on the mica surface was then air-dried for AFM observation. AFM was performed with Asylum-1 MFP-3D AFM System (Asylum Research, Santa Barbara, Calif.) using a tapping mode. The images utilized an Olympus Si tip (AC240FS). The cantilever's free resonance frequency was 70 kHz.

A short description of series [2]: Dissolution in deionized water and visual appearance of peptide solution. The note with it: deionized water.
Series [3] can be described thus: Congo Red assay of gel formation in PBS buffer (pH 7.4). The note with it: 1% Congo Red in PBS buffer pH 7.4. As to the method:
A Congo Red assay was performed to determine gel formation of peptide solutions in a PBS buffer solution (pH 7.4). 100 μl of each gel at varying concentrations were plated on a glass slide. After 30 seconds, 500 μl of a 1% Congo Red solution in PBS buffer (pH 7.4) was added around and on top of each of the gel aliquots and then the excess Congo Red solution was wiped off prior to examination.
Visualization of gel formation determined the success or failure of gelation at each concentration.

The nature of series [4]: Stability to autoclave sterilization, mass spectrometry before and after autoclave. The note with it: 121° C. for 25 min, high pressure saturated steam; mass spec before and after; N- and C-terminus not protected. From the text: Sterilization is a very important step in the manufacturing process for all biomaterials, including the self-assembling peptide solutions.
Series [5] is described as follows: Rheological properties at various concentrations (rheometer, stress sweep). The note with it: 37° C., 10 rad/s; for Loss Modulus (G')* / Storage Modulus (G')*: at 1 Pa of oscillation stress. As to the method: The rheological properties of the ST14 (SEQ ID NO:2) were evaluated at various concentrations using a rheometer (AR500, TA Instruments) with 40 mm plates. Peptide solution (700μL) was placed on the rheometer plate and excess solution was gently removed by Kimwipes; measurements were performed after 2 minutes of relaxation time at 37° C. The storage modulus, loss modulus, and viscosity (η′) were measured at 37° C. with the plates placed at a measuring geometry gap of 300 μm, and stress sweep tests were performed at 0.1 Pa˜1000 Pa of oscillation stress with angular frequency at 10 rad/s.

Consider 2 compounds from US11497833B2, “Self-assembling peptides comprising non-Ionic polar amino acids” (3-D Matrix, Ltd., priority 2014, dated 2022).

Peptide text beside a SMILES is read from it.

Regarding `CC(O)C(N)C(=O)NC(C(=O)NC(C(=O)NC(C(=O)NC(C(=O)NC(C(=O)NC(C(=O)NC(C(=O)NC(C(=O)NC(C(=O)NC(C(=O)NC(C(=O)NC(C(=O)NC(C(=O)O)C(C)O)C(C)O)C(C)O)C(C)O)C(C)O)C(C)O)C(C)O)C(C)O)C(C)O)C(C)O)C(C)O)C(C)O)C(C)O` (stereo not drawn) [Peptide T14, TTTTTTTTTTTTTT], the “AFM morphology (nano structure)” value in series [1] was “Aggregates”. Also, the appearance in solution result in series [2] (1 percent w/v to 5 percent w/v) was “translucent”. For the same compound, in series [2] (5 percent w/v), the solution consistency entry is listed as “formed a thick solution”. Moreover, the gel formation result in series [3] (below 1% peptide) is recorded as “did not form a gel”. For the same compound, the “degradation during autoclave treatment” value in series [4] is recorded as “did not degrade”.
Consider `CC(O)C(NC(=O)C(CO)NC(=O)C(NC(=O)C(CO)NC(=O)C(NC(=O)C(CO)NC(=O)C(NC(=O)C(CO)NC(=O)C(NC(=O)C(CO)NC(=O)C(NC(=O)C(CO)NC(=O)C(NC(=O)C(N)CO)C(C)O)C(C)O)C(C)O)C(C)O)C(C)O)C(C)O)C(=O)O` (stereo not drawn) [ST14, STSTSTSTSTSTST] (H-STSTSTSTSTSTST-OH; configuration not given here), for which, in series [2] (1 percent w/v to 5 percent w/v), the appearance in solution entry is recorded as “translucent” and the solution consistency result was “formed thick solutions”. For the same compound, in series [3] (0.5% peptide), the gel formation result was “did not form a gel”. In series [5] (Concentration 1), the “Max. Viscosity (max η')” value is reported as 1.2 Pa-s, the “Loss Modulus (G')*” value is 11.4 Pa and the “Storage Modulus (G')*” value is reported as 67 Pa. Also, in series [5] (Concentration 1.5), the “Max. Viscosity (max η')” value was determined as 1.5 Pa-s, the “Loss Modulus (G')*” value came out at 9.8 Pa and the “Storage Modulus (G')*” value came out at 94 Pa. Besides, in series [5] (Concentration 2), the “Max. Viscosity (max η')” value is on record as 2.0 Pa-s, the “Loss Modulus (G')*” value was 17.3 Pa and the “Storage Modulus (G')*” value is reported as 136 Pa. In series [5] (Concentration 2.5), the “Max. Viscosity (max η')” value was 2.2 Pa-s, the “Loss Modulus (G')*” value was 17.1 Pa and the “Storage Modulus (G')*” value was 167 Pa. In addition, in series [4], the “degradation during autoclave treatment” value is recorded as “did not degrade”.
